Assay results as given in patent publication US9580437B2, “Triazolopyrimidine compounds and uses thereof” (Novartis AG, priority 2014, dated 2017).

Columns and labels:
[1] = molecular target: wild type PRC2 (wtPRC2) complex (Homo sapiens (Human), UniProt O75530); assay: EED LC-MS assay; format: biochemical; settings: read-out: (b) IC50 EED LC-MS Qualified
Method: A 6 μL solution of 3 μM of the peptide substrate H3K27Me0 (histone H3[21-44]-biotin) in reaction buffer was added to initiate each reaction. […] ELISA (H3K27 Methylation) Assay

EED (1-441)-His protein = EED (1-441)-His protein (Homo sapiens (Human), UniProt O75530); assay: EED-H3K27Me3 peptide competition binding assay by AlphaScreen; settings: read-out: (a) IC50 EED Alphascreen binding Qualified
Text: EED-H3K27Me3 peptide competition binding assay by AlphaScreen (α-screen)

Chain of EED (1-441)-His protein (O75530 whole entry): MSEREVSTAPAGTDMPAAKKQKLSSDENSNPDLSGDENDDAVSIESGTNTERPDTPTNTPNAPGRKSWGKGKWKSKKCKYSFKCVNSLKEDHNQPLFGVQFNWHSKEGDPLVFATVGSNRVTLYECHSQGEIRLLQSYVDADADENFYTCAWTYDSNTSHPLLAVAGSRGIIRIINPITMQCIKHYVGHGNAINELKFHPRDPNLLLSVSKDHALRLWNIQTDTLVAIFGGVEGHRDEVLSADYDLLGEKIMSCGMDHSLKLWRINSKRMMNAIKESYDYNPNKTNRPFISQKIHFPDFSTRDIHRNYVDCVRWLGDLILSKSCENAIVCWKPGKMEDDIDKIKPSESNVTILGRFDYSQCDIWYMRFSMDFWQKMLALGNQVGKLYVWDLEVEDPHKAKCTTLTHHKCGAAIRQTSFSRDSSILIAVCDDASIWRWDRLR
Chain of wild type PRC2 (wtPRC2) complex (O75530 whole entry): as above
Chain of wild type PRC2 (wtPRC2) complex (Q15910 whole entry partner): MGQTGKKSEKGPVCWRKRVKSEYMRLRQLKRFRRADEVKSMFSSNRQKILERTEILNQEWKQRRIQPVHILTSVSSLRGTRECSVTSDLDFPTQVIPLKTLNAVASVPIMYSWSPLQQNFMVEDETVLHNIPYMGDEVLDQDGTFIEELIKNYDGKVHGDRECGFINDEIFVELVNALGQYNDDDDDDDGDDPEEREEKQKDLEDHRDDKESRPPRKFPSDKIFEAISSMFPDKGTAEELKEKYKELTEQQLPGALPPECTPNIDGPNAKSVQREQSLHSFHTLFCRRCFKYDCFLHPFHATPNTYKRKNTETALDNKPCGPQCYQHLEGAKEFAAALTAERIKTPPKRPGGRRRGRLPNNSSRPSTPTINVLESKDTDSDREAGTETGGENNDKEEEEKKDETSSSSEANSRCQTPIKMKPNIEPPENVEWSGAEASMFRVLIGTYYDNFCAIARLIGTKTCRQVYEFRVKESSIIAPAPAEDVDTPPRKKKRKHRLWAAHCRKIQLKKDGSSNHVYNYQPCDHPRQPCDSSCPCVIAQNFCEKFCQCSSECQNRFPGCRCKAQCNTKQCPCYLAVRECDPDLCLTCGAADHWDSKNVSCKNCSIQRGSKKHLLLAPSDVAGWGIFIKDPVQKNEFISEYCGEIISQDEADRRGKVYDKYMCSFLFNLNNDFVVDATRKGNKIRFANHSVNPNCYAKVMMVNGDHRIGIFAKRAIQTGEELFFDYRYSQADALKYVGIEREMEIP
Chain of wild type PRC2 (wtPRC2) complex (Q15022 whole entry partner): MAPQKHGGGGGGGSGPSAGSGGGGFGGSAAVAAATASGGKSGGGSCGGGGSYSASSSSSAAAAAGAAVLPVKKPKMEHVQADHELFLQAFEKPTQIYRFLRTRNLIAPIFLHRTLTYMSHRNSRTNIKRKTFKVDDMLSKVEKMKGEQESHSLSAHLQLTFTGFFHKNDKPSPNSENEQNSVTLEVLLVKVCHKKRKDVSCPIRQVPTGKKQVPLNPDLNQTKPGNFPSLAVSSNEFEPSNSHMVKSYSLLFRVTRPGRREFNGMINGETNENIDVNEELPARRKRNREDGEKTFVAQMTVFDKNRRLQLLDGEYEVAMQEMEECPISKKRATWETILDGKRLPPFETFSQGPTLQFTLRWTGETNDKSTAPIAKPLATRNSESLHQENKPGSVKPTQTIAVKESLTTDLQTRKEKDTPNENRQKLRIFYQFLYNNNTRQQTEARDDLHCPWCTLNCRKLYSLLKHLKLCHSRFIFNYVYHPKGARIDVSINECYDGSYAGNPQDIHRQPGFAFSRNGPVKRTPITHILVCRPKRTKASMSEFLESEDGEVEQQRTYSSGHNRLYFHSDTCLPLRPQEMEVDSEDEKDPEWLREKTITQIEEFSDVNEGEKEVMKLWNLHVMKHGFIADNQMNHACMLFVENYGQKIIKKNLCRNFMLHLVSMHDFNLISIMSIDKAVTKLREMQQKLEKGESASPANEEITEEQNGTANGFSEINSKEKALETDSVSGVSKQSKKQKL

Row | SMILES | IC50 [1] [nM] | IC50 (EED (1-441)-His protein) [nM]
1 | CC(c1ccc(-c2cnc(NCc3c(F)ccc4c3CCO4)n3cnnc23)cc1)N1CCCC1 (centres unmarked) [Example 46, N-((5-fluoro-2,3-dihydrobenzofuran-4-yl)methyl)-8-(4-(1-(pyrrolidin-1-yl)ethyl)phenyl)-[1,2,4]triazolo[4,3-c]pyrimidin-5-amine] | 64 | 43.5
2 | Fc1ccccc1-c1cnc(NCc2c(F)ccc3c2CCO3)n2cnnc12 [Example 94, N-((5-fluoro-2,3-dihydrobenzofuran-4-yl)methyl)-8-(2-fluorophenyl)-[1,2,4]triazolo[4,3-c]pyrimidin-5-amine] | 18.6 | 11.3
3 | CS(=O)(=O)CCOc1cncc(-c2cnc(NCc3cccc4c3CCO4)n3cnnc23)c1 [Example 106, N-((2,3-dihydrobenzofuran-4-yl)methyl)-8-(5-(2-(methylsulfonyl)ethoxy)pyridin-3-yl)-[1,2,4]triazolo[4,3-c]pyrimidin-5-amine] | 34.1 | 25
4 | CC1(C)COC(c2cncc(-c3cnc(NCc4cccc5c4CCO5)n4cnnc34)c2)=N1 [Example 90, N-((2,3-dihydrobenzofuran-4-yl)methyl)-8-(5-(4,4-dimethyl-4,5-dihydrooxazol-2-yl)pyridin-3-yl)-[1,2,4]triazolo[4,3-c]pyrimidin-5-amine] | 30.3 | 13.1
5 | Cc1cnc(Cl)cc1-c1cnc(NCc2c(F)ccc3c2CCO3)n2cnnc12 [Example 228, 8-(2-chloro-5-methylpyridin-4-yl)-N-((5-fluoro-2,3-dihydrobenzofuran-4-yl)methyl)-[1,2,4]triazolo[4,3-c]pyrimidin-5-amine] | 9 | 8.2
6 | CC(O)c1ccc(-c2cnc(NCc3cccc4c3CCO4)n3cnnc23)cn1 (centres unmarked) [Example 84, 1-(5-(5-(((2,3-dihydrobenzofuran-4-yl)methyl)amino)-[1,2,4]triazolo[4,3-c]pyrimidin-8-yl)pyridin-2-yl)ethanol] | 12.9 | 6.3
7 | Fc1ccc2c(c1CNc1ncc(-c3cccnc3F)c3nncn13)CCO2 [Example 115, N-((5-fluoro-2,3-dihydrobenzofuran-4-yl)methyl)-8-(2-fluoropyridin-3-yl)-[1,2,4]triazolo[4,3-c]pyrimidin-5-amine] | 6.9 | 4.7
8 | Cc1nn(C)c(C)c1-c1cnc(NCc2c(F)ccc3c2CCO3)n2cnnc12 [Example 132, N-((5-fluoro-2,3-dihydrobenzofuran-4-yl)methyl)-8-(1,3,5-trimethyl-1H-pyrazol-4-yl)-[1,2,4]triazolo[4,3-c]pyrimidin-5-amine] | 10.2 | 6.2
9 | Cc1nc(C2CC2)ncc1-c1cnc(NCc2c(F)ccc3c2CCO3)n2cnnc12 [Example 8, 8-(2-cyclopropyl-4-methylpyrimidin-5-yl)-N-((5-fluoro-2,3-dihydrobenzofuran-4-yl)methyl)-[1,2,4]triazolo[4,3-c]pyrimidin-5-amine] | 7.2 | 4.9
10 | Cc1nc(N)ccc1-c1cnc(NCc2c(F)ccc3c2CCO3)n2cnnc12 [Example 156, 8-(6-amino-2-methylpyridin-3-yl)-N-((5-fluoro-2,3-dihydrobenzofuran-4-yl)methyl)-[1,2,4]triazolo[4,3-c]pyrimidin-5-amine] | 17.3 | 4
11 | COCc1cc(-c2cnc(NCc3cccc4c3CCO4)n3cnnc23)cnc1C [Example 137, N-((2,3-dihydrobenzofuran-4-yl)methyl)-8-(5-(methoxymethyl)-6-methylpyridin-3-yl)-[1,2,4]triazolo[4,3-c]pyrimidin-5-amine] | 29.6 | 22
12 | COc1cc(C)c(-c2cnc(NCc3c(F)ccc4c3CCO4)n3cnnc23)cn1 [Example 5, N-((5-fluoro-2,3-dihydrobenzofuran-4-yl)methyl)-8-(6-methoxy-4-methylpyridin-3-yl)-[1,2,4]triazolo[4,3-c]pyrimidin-5-amine] | 9.7 | 4.8
13 | Cc1cc(-c2cnc(NCc3c(F)ccc4c3CCO4)n3cnnc23)c(C)cn1 [Example 194, 8-(2,5-dimethylpyridin-4-yl)-N-((5-fluoro-2,3-dihydrobenzofuran-4-yl)methyl)-[1,2,4]triazolo[4,3-c]pyrimidin-5-amine] | 7 | 2.4
14 | COc1ncc(-c2cnc(NCc3cccc4c3CCO4)n3cnnc23)cn1 [Example 54, N-((2,3-dihydrobenzofuran-4-yl)methyl)-8-(2-methoxypyrimidin-5-yl)-[1,2,4]triazolo[4,3-c]pyrimidin-5-amine] | 54.6 | 29.1
15 | Cc1ncncc1-c1cnc(NCc2c(F)ccc3c2CCO3)n2cnnc12 [Example 176, N-((5-fluoro-2,3-dihydrobenzofuran-4-yl)methyl)-8-(4-methylpyrimidin-5-yl)-[1,2,4]triazolo[4,3-c]pyrimidin-5-amine] | 8.3 | 5.9
16 | Cc1cnc(F)cc1-c1cnc(NCc2c(F)ccc3c2CCO3)n2cnnc12 [Example 183, N-((5-fluoro-2,3-dihydrobenzofuran-4-yl)methyl)-8-(2-fluoro-5-methylpyridin-4-yl)-[1,2,4]triazolo[4,3-c]pyrimidin-5-amine] | 8.1 | 4.8
17 | Cc1c(-c2cnc(NCc3c(F)ccc4c3CCO4)n3cnnc23)cnn1CCO [Example 189, 2-(4-(5-(((5-fluoro-2,3-dihydrobenzofuran-4-yl)methyl)amino)-[1,2,4]triazolo[4,3-c]pyrimidin-8-yl)-5-methyl-1H-pyrazol-1-yl)ethanol] | 8.7 | 4.2
18 | Cc1cc(C(=O)N(C)C)ncc1-c1cnc(NCc2c(F)ccc3c2CCO3)n2cnnc12 [Example 131, 5-(5-(((5-fluoro-2,3-dihydrobenzofuran-4-yl)methyl)amino)-[1,2,4]triazolo[4,3-c]pyrimidin-8-yl)-N,N,4-trimethylpicolinamide] | 10.6 | 4
19 | Cn1cc(-c2cnc(NCc3c(F)ccc4c3CCO4)n3cnnc23)cn1 [Example 147, N-((5-fluoro-2,3-dihydrobenzofuran-4-yl)methyl)-8-(1-methyl-1H-pyrazol-4-yl)-[1,2,4]triazolo[4,3-c]pyrimidin-5-amine] | 15.9 | 3.6
20 | Cc1ncccc1-c1cnc(NCc2c(F)ccc3occc23)n2cnnc12 [Example 207, N-((5-fluorobenzofuran-4-yl)methyl)-8-(2-methylpyridin-3-yl)-[1,2,4]triazolo[4,3-c]pyrimidin-5-amine] | 182 | 

Continued, values first:

Row | IC50 [1] [nM] | IC50 (EED (1-441)-His protein) [nM] | SMILES
21 | 41.8 | 15.9 | Fc1ccc2c(c1CNc1ncc(-c3cnccc3C(F)(F)F)c3nncn13)CCO2 [Example 136, N-((5-fluoro-2,3-dihydrobenzofuran-4-yl)methyl)-8-(4-(trifluoromethyl)pyridin-3-yl)-[1,2,4]triazolo[4,3-c]pyrimidin-5-amine]
22 | 17.4 | 12.5 | Cc1cc(-c2cnc(NCc3cccc4c3CCO4)n3cnnc23)cnc1N1CCOCC1 [Example 73, N-((2,3-dihydrobenzofuran-4-yl)methyl)-8-(5-methyl-6-morpholinopyridin-3-yl)-[1,2,4]triazolo[4,3-c]pyrimidin-5-amine]
23 | 13.2 | 5.4 | Cc1cnc(C(F)(F)F)cc1-c1cnc(NCc2c(F)ccc3c2CCO3)n2cnnc12 [Example 184, N-((5-fluoro-2,3-dihydrobenzofuran-4-yl)methyl)-8-(5-methyl-2-(trifluoromethyl)pyridin-4-yl)-[1,2,4]triazolo[4,3-c]pyrimidin-5-amine]
24 | 18.2 | 10.1 | Cc1ccncc1-c1cnc(NCc2c(F)ccc3c2CCO3)n2cnnc12 [Example 118, N-((5-fluoro-2,3-dihydrobenzofuran-4-yl)methyl)-8-(4-methylpyridin-3-yl)-[1,2,4]triazolo[4,3-c]pyrimidin-5-amine]
25 | 21.6 | 13.1 | Cc1nn(C(C)C)c(C)c1-c1cnc(NCc2c(F)ccc3c2CCO3)n2cnnc12 [Example 151, N-((5-fluoro-2,3-dihydrobenzofuran-4-yl)methyl)-8-(1-isopropyl-3,5-dimethyl-1H-pyrazol-4-yl)-[1,2,4]triazolo[4,3-c]pyrimidin-5-amine]
26 | 41.2 | 19.1 | Clc1ccncc1-c1cnc(NCc2cccc3c2CCO3)n2cnnc12 [Example 50, 8-(4-chloropyridin-3-yl)-N-((2,3-dihydrobenzofuran-4-yl)methyl)-[1,2,4]triazolo[4,3-c]pyrimidin-5-amine]
27 | 47 | 19.5 | Cc1ncc(-c2cnc(NCc3cccc4c3CCO4)n3cnnc23)cn1 [Example 60, N-((2,3-dihydrobenzofuran-4-yl)methyl)-8-(2-methylpyrimidin-5-yl)-[1,2,4]triazolo[4,3-c]pyrimidin-5-amine]
28 | 18 | 5.2 | CC(C)n1cc(-c2cnc(NCc3c(F)ccc4c3CCO4)n3cnnc23)c(C(F)(F)F)n1 [Example 148, N-((5-fluoro-2,3-dihydrobenzofuran-4-yl)methyl)-8-(1-isopropyl-3-(trifluoromethyl)-1H-pyrazol-4-yl)-[1,2,4]triazolo[4,3-c]pyrimidin-5-amine]
29 | 14.8 | 7.8 | Cc1nn(C(C)C)c(C)c1-c1cnc(NCc2cccc3c2CCO3)n2cnnc12 [Example 153, N-((2,3-dihydrobenzofuran-4-yl)methyl)-8-(1-isopropyl-3,5-dimethyl-1H-pyrazol-4-yl)-[1,2,4]triazolo[4,3-c]pyrimidin-5-amine]
30 | 12.5 | 7.9 | N#Cc1ccc(-c2cnc(NCc3c(F)ccc4c3CCO4)n3cnnc23)cn1 [Example 93, 5-(5-(((5-fluoro-2,3-dihydrobenzofuran-4-yl)methyl)amino)-[1,2,4]triazolo[4,3-c]pyrimidin-8-yl)picolinonitrile]
